The record followed here is patent publication US9266859B2, “Azetidinyloxyphenylpyrrolidine compounds” (Eli Lilly and Company, priority 2013, dated 2016).

“And” between values parts separate entries of the source, which are not always exact repeats. Identical values can stand only once.

The target of one test is T1, PDE4B (Homo sapiens, UniProt Q07343).
T1 construct: made in house; host or cells: Saccharomyces cerevisiae lacking endogenous PDEs
Kind of test: PDE4 Inhibition In Vitro Assay. The test is classed as biochemical. The settings on record: human recombinant PDE4B. On the procedure:
The phosphodiesterase assays are performed essentially according to the method described in Loughney, K., et al., J. Biol. Chem., 271, pp. 796-806 (1996). PDE4A, PDE4B, PDE4C, PDE4D, and PDE5 human recombinant proteins are expressed and purified from Saccharomyes cerevisiae that lack endogenous PDEs. The phosphodiesterase enzymes are diluted on ice with enzyme dilution buffer (25 mM Tris, pH 7.5, 0.1 mM DTT, 5.0 mM MgCl2, 100 mM NaCl, 5 μM ZnSO4, 100 μg/mL BSA) to give approximately 20%-40% hydrolysis of cyclic nucleotide monophosphate (cNMP) in the absence of inhibitor.
The stock solution of test compounds are diluted on the Beckman BioMek™ 1000 workstation to span a concentration range of 4.5 log units in 0.5 log increments. The DMSO concentration in the final test system is 2.5% for all PDE enzymes. The final test compound concentration tested ranged from 0.03 nM to 1 μM.
The assay is performed in a 96-well microtiter plate format on a Beckman BioMek™ 1000 robotic station. […] The amount of radioactivity released as phosphate is determined in a Wallac MicroBeta Plate™ counter.
The reduced data at each concentration of inhibitor is analyzed using a four-, three- or two-parameter logistic dose response model to provide an IC50 value.

Test [1] relates to chronic cyclophosphamide (CYP)-induced overactive bladder mouse model. Description: Overactive Bladder In Vivo Model (chronic cyclophosphamide-induced). How it is done: The in vivo effect of PDE4 inhibitors on OAB is studied with a chronic cyclophosphamide (CYP)-induced overactive bladder mouse model adapted from Boudes et al., Neurourol. Urodynam. 2011. In a typical study, female C57/Bl6 mice, approximately 20 grams in body weight (Harlan Laboratories, Inc., Indianapolis, Ind.) are used. Mice are randomized by body weight into groups one day before the start of the study. Mice are individually housed and maintained on a 12 hour light/dark cycle at 22° C. with ad lib access to food (TD 2014 with 0.72% Ca and 0.61% P, 990 IU/g D3, Teklad™, Madison, Wis.) and water. Animals receive cyclophosphamide (dissolved in physiological saline) i.p. administration at 100 mg/kg on days 1, 3, 5, and 7 to chronically induce OAB. The vehicle control group received daily vehicle (HEC 1%/Tween 80 0.25%/Antifoam 0.05%) administered orally. All other groups are administered orally tadalafil at 10 mg/kg in combination with 0.1, 1.0, or 10.0 mg/kg of test compound daily at a volume of 200 μl/mouse. On day 8, mice are housed in urine collection chambers with a filter paper placed underneath chamber. Prior to urine collection, gavages of 1 ml water are given to each mouse. Urine is collected from 6 pm to 10 pm (i.e. for 4 hrs). Gel cups (DietGel™76A) are supplied as water source during the 4 hour period. The filter paper is changed every hour. Voiding frequency and volume/void are calculated using Image J software (NIH). Data are statistically analyzed with JMP8® software (Cary, N.C.).
All treatment groups receive a fixed dose of 10 mg/kg of tadalafil.

The mark [2] stands for this setting: Example 2 0.1, 1.0, 10.0 mg/kg given with tadalafil 10 mg/kg.

T1 sequence (Q07343 whole entry): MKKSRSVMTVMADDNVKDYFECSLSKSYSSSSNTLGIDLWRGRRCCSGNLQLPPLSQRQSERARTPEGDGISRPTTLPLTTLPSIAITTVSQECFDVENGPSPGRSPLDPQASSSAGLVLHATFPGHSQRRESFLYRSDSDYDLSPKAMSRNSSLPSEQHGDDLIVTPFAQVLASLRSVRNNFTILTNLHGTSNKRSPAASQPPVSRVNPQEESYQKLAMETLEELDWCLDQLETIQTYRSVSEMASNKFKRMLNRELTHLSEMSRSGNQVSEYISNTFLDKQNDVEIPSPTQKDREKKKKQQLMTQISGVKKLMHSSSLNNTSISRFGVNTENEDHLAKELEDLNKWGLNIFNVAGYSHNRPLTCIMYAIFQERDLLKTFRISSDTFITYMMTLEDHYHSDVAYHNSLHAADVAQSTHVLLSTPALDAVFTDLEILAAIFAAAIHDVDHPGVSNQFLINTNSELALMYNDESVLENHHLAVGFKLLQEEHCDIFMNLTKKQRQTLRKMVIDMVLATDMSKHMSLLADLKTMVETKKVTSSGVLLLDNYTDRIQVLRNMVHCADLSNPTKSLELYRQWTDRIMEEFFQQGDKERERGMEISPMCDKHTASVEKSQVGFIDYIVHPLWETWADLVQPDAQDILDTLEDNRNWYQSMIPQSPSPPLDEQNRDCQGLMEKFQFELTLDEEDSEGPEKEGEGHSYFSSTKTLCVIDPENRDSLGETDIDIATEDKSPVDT

By IC50 is commonly meant the concentration at which inhibition is half-maximal. As for `COc1ccc([C@@H]2CN(C(=O)[C@@H](O)CO)C[C@@]2(C)[C@@H](C)O)cc1OC1CN(c2ccc(C)cn2)C1` [Example 2, (2S)-3-[(3S,4S)-3-[(1R)-1-hydroxyethyl]-4-(4-methoxy-3-{[1-(5-methylpyridin-2-yl)azetidin-3-yl]oxy}phenyl)-3-methylpyrrolidin-1-yl]-3-oxopropane-1,2-diol], the IC50 on PDE4B was < 10 nM and 0.58 nM. Moreover, the “Mean Voiding Frequency” value in test [1] (Example 2 0.1 mg/kg + tadalafil 10 mg/kg, oral daily, day 8, CYP-treated female C57/Bl6 mice, vehicle 16.5) is 10 no./4 hr. Moreover, in test [1] (setting [2]), the “effect on urinary frequency (in words)” value is “significantly reduces urinary frequency in a dose-dependent fashion” and the “effect on volume/void (in words)” value is “increases of volume/void are also observed in a dose-dependent fashion”.
With `COc1ccc([C@@H]2CN(C(=O)[C@@H](O)CO)C[C@@]2(C)[C@@H](C)O)cc1OC1CN(c2ccccn2)C1` [Example 1, (2S)-3-[(3S,4S)-3-[(1R)-1-hydroxyethyl]-4-{4-methoxy-3-[(1-pyridin-2-ylazetidin-3-yl)oxy]phenyl}-3-methylpyrrolidin-1-yl]-3-oxopropane-1,2-diol], the IC50 at PDE4B is below 10 nM.
